Experiments:
rat orexin 1 receptor = rat orexin 1 receptor (Rattus norvegicus, UniProt P56718); test: Rat orexin 1 receptor radioligand binding; settings: rat orexin 1 receptor; averages of 2-20 runs; read-out: rOX1 Ki
Method in brief: (§1)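 Ki values derive from one-site competition IC50s corrected with the radioligand's predetermined Kd, triplicates per run, averaged over 2-20 runs. Cell homogenates (rat or human OX1R) compete against [^3H]-thiazolyl-oxadiazolyl-pyrrolidine methanone in PBS; 10 μM almorexant sets nonspecific binding; scintillation counting after washing.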

human orexin 1 receptor = human orexin 1 receptor (Homo sapiens, UniProt O43613); test: Human orexin 1 receptor radioligand binding; settings: human orexin 1 receptor; averages of 2-20 runs; read-out: hOX1 Ki
Method in brief: as §1

human orexin 2 receptor = human orexin 2 receptor (Homo sapiens (Human), UniProt O43614); test: Human orexin 2 receptor radioligand binding; settings: human orexin 2 receptor; averages of 2-20 runs; read-out: hOX2 Ki
Sequence of human orexin 2 receptor (O43614 whole entry): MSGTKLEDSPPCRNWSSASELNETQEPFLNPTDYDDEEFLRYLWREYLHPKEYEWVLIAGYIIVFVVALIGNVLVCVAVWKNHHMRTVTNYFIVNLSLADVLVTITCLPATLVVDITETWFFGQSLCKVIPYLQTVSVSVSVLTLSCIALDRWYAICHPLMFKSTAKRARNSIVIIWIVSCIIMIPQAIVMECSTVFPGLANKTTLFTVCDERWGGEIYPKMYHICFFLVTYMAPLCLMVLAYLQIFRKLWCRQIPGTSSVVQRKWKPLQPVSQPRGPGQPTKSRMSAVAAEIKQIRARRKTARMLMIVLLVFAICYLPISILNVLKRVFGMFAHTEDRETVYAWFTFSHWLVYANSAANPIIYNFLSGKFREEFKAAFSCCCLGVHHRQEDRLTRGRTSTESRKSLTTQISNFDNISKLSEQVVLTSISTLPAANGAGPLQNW
Method in brief: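 Ki derived from one-site competition IC50 using predetermined Kd of [3H]-EMPA, triplicate points, 2-20 runs averaged. Binding done on homogenized HEK293 cells stably expressing human orexin 2 receptor, DMSO ≤0.1%, with 10 μM almorexant defining nonspecific binding; filtered, washed, scintillation counted.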

Row | Ki (rat orexin 1 receptor) [nM] | Ki (human orexin 1 receptor) [nM] | Ki (human orexin 2 receptor) [nM] | SMILES
1 | 9 | 9 | 545 | O=C(c1ccccc1-c1ncc(F)cn1)N1C[C@H]2C[C@@H](Nc3cnc(C(F)(F)F)cn3)[C@@H]1C2 [Example 203, (2-(5-fluoropyrimidin-2-yl)phenyl)((1S,4S,6R)-6-((5-(trifluoromethyl)pyrazin-2-yl)amino)-2-azabicyclo[2.2.1]heptan-2-yl)methanone]
2 | 51 | 35 | 846 | O=C(c1nccnc1-c1ccccc1)N1C[C@H]2C[C@@H](Nc3cnc(C(F)(F)F)cn3)[C@@H]1C2 [Example 205, (3-phenylpyrazin-2-yl)((1S,4S,6R)-6-((5-(trifluoromethyl)pyrazin-2-yl)amino)-2-azabicyclo[2.2.1]heptan-2-yl)methanone]
3 | 143 | 127 | 611 | O=C(c1occc1-c1ccccc1)N1C[C@H]2C[C@@H](Nc3cnc(C(F)(F)F)cn3)[C@@H]1C2 [Example 207, (3-phenylfuran-2-yl)((1S,4S,6R)-6-((5-(trifluoromethyl)pyrazin-2-yl)amino)-2-azabicyclo[2.2.1]heptan-2-yl)methanone]
4 | 6 | 5 | 502 | CN(c1cnc(C(F)(F)F)cn1)[C@@H]1C[C@H]2C[C@@H]1N(C(=O)c1ccccc1-c1ncccn1)C2 [Example 210, ((1S,4S,6R)-6-(methyl(5-(trifluoromethyl)pyrazin-2-yl)amino)-2-azabicyclo[2.2.1]heptan-2-yl)(2-(pyrimidin-2-yl)phenyl)methanone]
5 | 31 | 16 | 1300 | O=C(c1cccc(F)c1-c1ncccn1)N1C[C@H]2C[C@@H](N(CC3CC3)c3cnc(C(F)(F)F)cn3)[C@@H]1C2 [Example 211, ((1S,4S,6R)-6-((cyclopropylmethyl)(5-(trifluoromethyl)pyrazin-2-yl)amino)-2-azabicyclo[2.2.1]heptan-2-yl)(3-fluoro-2-(pyrimidin-2-yl)phenyl)methanone]
6 | 14 | 9 | 607 | O=C(c1cccc(F)c1-n1nccn1)N1C[C@H]2C[C@@H](Nc3cnc(Cl)cn3)[C@@H]1C2 [Example 212, ((1S,4S,6R)-6-((5-chloropyrazin-2-yl)amino)-2-azabicyclo[2.2.1]heptan-2-yl)(3-fluoro-2-(2H-1,2,3-triazol-2-yl)phenyl)methanone]
7 | 12 | 13 | 435 | O=C(c1ccccc1-c1ncccn1)N1C[C@H]2C[C@@H](Nc3cnc(Cl)cn3)[C@@H]1C2 [Example 215, ((1S,4S,6R)-6-((5-chloropyrazin-2-yl)amino)-2-azabicyclo[2.2.1]heptan-2-yl)(2-(pyrimidin-2-yl)phenyl)methanone]
8 | 12 | 29 | 390 | Cc1cnc(N[C@@H]2C[C@H]3C[C@@H]2N(C(=O)c2cccc(F)c2-n2nccn2)C3)cn1 [Example 217, (3-fluoro-2-(2H-1,2,3-triazol-2-yl)phenyl)((1S,4S,6R)-6-((5-methylpyrazin-2-yl)amino)-2-azabicyclo[2.2.1]heptan-2-yl)methanone]
9 | 11 | 17 | 284 | Cc1cnc(N[C@@H]2C[C@H]3C[C@@H]2N(C(=O)c2ccccc2-c2ncccn2)C3)cn1 [Example 220, ((1S,4S,6R)-6-((5-methylpyrazin-2-yl)amino)-2-azabicyclo[2.2.1]heptan-2-yl)(2-(pyrimidin-2-yl)phenyl)methanone]
10 | 11 | 6 | 619 | O=C(c1cccc(F)c1-n1nccn1)N1C[C@H]2C[C@@H](Nc3ncc(C(F)(F)F)cn3)[C@@H]1C2 [Example 223, (3-fluoro-2-(2H-1,2,3-triazol-2-yl)phenyl)((1S,4S,6R)-6-((5-(trifluoromethyl)pyrimidin-2-yl)amino)-2-azabicyclo[2.2.1]heptan-2-yl)methanone]
11 | 20 | 16 | 800 | O=C(c1cc(F)ccc1-n1nccn1)N1C[C@H]2C[C@@H](Nc3ncc(C(F)(F)F)cn3)[C@@H]1C2 [Example 225, (5-fluoro-2-(2H-1,2,3-triazol-2-yl)phenyl)((1S,4S,6R)-6-((5-(trifluoromethyl)pyrimidin-2-yl)amino)-2-azabicyclo[2.2.1]heptan-2-yl)methanone]
12 | 11 | 9 | 544 | O=C(c1cc(F)ccc1-c1ncccn1)N1C[C@H]2C[C@@H](Nc3ncc(C(F)(F)F)cn3)[C@@H]1C2 [Example 228, (5-fluoro-2-(pyrimidin-2-yl)phenyl)((1S,4S,6R)-6-((5-(trifluoromethyl)pyrimidin-2-yl)amino)-2-azabicyclo[2.2.1]heptan-2-yl)methanone]

The remaining lines, values behind:

Row | SMILES | Ki (rat orexin 1 receptor) [nM] | Ki (human orexin 1 receptor) [nM] | Ki (human orexin 2 receptor) [nM]
13 | O=C(c1cc(F)ccc1-c1ncco1)N1C[C@H]2C[C@@H](Nc3cnc(C(F)(F)F)cn3)[C@@H]1C2 [Example 202, (5-fluoro-2-(oxazol-2-yl)phenyl)((1S,4S,6R)-6-((5-(trifluoromethyl)pyrazin-2-yl)amino)-2-azabicyclo[2.2.1]heptan-2-yl)methanone] | 13 | 13 | 302
14 | O=C(c1cccc(F)c1-c1ncc(F)cn1)N1C[C@H]2C[C@@H](Nc3cnc(C(F)(F)F)cn3)[C@@H]1C2 [Example 204, (3-fluoro-2-(5-fluoropyrimidin-2-yl)phenyl)((1S,4S,6R)-6-((5-(trifluoromethyl)pyrazin-2-yl)amino)-2-azabicyclo[2.2.1]heptan-2-yl)methanone] | 9 | 9 | 960
15 | O=C(c1ccccc1-c1ccccc1)N1C[C@H]2C[C@@H](Nc3cnc(C(F)(F)F)cn3)[C@@H]1C2 [Example 206, [1,1′-biphenyl]-2-yl((1S,4S,6R)-6-((5-(trifluoromethyl)pyrazin-2-yl)amino)-2-azabicyclo[2.2.1]heptan-2-yl)methanone] | 8 | 10 | 103
16 | CN(c1cnc(C(F)(F)F)cn1)[C@@H]1C[C@H]2C[C@@H]1N(C(=O)c1cccc(F)c1-c1ncccn1)C2 [Example 208, (3-fluoro-2-(pyrimidin-2-yl)phenyl)((1S,4S,6R)-6-(methyl(5-(trifluoromethyl)pyrazin-2-yl)amino)-2-azabicyclo[2.2.1]heptan-2-yl)methanone] | 7 | 6 | 846
17 | CN(c1cnc(C(F)(F)F)cn1)[C@@H]1C[C@H]2C[C@@H]1N(C(=O)c1cc(F)ccc1-c1ncccn1)C2 [Example 209, (5-fluoro-2-(pyrimidin-2-yl)phenyl)((1S,4S,6R)-6-(methyl(5-(trifluoromethyl)pyrazin-2-yl)amino)-2-azabicyclo[2.2.1]heptan-2-yl)methanone] | 9 | 5 | 753
18 | O=C(c1cc(F)ccc1-n1nccn1)N1CC2CC(Nc3cnc(Cl)cn3)C1C2 [Example 213, 1S,4S,6R)-6-((5-chloropyrazin-2-yl)amino)-2-azabicyclo[2.2.1]heptan-2-yl)(5-fluoro-2-(2H-1,2,3-triazol-2-yl)phenyl)methanone] | 39 | 31 | 871
19 | O=C(c1cccc(F)c1-c1ncccn1)N1C[C@H]2C[C@@H](Nc3cnc(Cl)cn3)[C@@H]1C2 [Example 214, ((1S,4S,6R)-6-((5-chloropyrazin-2-yl)amino)-2-azabicyclo[2.2.1]heptan-2-yl)(3-fluoro-2-(pyrimidin-2-yl)phenyl)methanone] | 13 | 14 | 708
20 | Cc1cnc(N[C@@H]2C[C@H]3C[C@@H]2N(C(=O)c2cc(F)ccc2-n2nccn2)C3)cn1 [Example 218, (5-fluoro-2-(2H-1,2,3-triazol-2-yl)phenyl)((1S,4S,6R)-6-((5-methylpyrazin-2-yl)amino)-2-azabicyclo[2.2.1]heptan-2-yl)methanone] | 31 | 49 | 490
21 | Cc1cnc(N[C@@H]2C[C@H]3C[C@@H]2N(C(=O)c2cccc(F)c2-c2ncccn2)C3)cn1 [Example 219, (3-fluoro-2-(pyrimidin-2-yl)phenyl)((1S,4S,6R)-6-((5-methylpyrazin-2-yl)amino)-2-azabicyclo[2.2.1]heptan-2-yl)methanone] | 20 | 27 | 480
22 | O=C(c1ccc(F)cc1-n1nccn1)N1C[C@H]2C[C@@H](Nc3ncc(C(F)(F)F)cn3)[C@@H]1C2 [Example 224, (4-fluoro-2-(2H-1,2,3-triazol-2-yl)phenyl)((1S,4S,6R)-6-((5-(trifluoromethyl)pyrimidin-2-yl)amino)-2-azabicyclo[2.2.1]heptan-2-yl)methanone] | 37 | 33 | 1900
23 | O=C(c1c(F)cccc1-n1nccn1)N1C[C@H]2C[C@@H](Nc3ncc(C(F)(F)F)cn3)[C@@H]1C2 [Example 226, (2-fluoro-6-(2H-1,2,3-triazol-2-yl)phenyl)((1S,4S,6R)-6-((5-(trifluoromethyl)pyrimidin-2-yl)amino)-2-azabicyclo[2.2.1]heptan-2-yl)methanone] | 17 | 19 | 874
24 | O=C(c1ccc(F)cc1-c1ncccn1)N1C[C@H]2C[C@@H](Nc3ncc(C(F)(F)F)cn3)[C@@H]1C2 [Example 227, (4-fluoro-2-(pyrimidin-2-yl)phenyl)((1S,4S,6R)-6-((5-(trifluoromethyl)pyrimidin-2-yl)amino)-2-azabicyclo[2.2.1]heptan-2-yl)methanone] | 12 | 13 | 3100
